Measurements as given in the NIST ThermoML archive (doi:10.1016/j.jct.2017.06.013).

Test: xn = mol fraction of the nth substance listed
Details: Liquid, Vibrating tube method

CC(C)OC(C)C [diisopropyl ether] + CCCCCCO
mass density [kg/m3]
Details | x1 = 0.1524 | x1 = 0.3196 | x1 = 0.4906 | x1 = 0.6974 | x1 = 0.8457
333.15 K, 140000 kPa | – | – | 831.4 | 817.4 | 807
353.15 K, 100 kPa | 759.2 | 741.7 | 722.5 | 698 | 679.1
353.15 K, 500 kPa | 759.5 | 742.1 | 723 | 698.5 | 679.8
353.15 K, 1000 kPa | 760 | 742.7 | 723.6 | 699.3 | 680.7
353.15 K, 2000 kPa | 761 | 743.8 | 724.9 | 700.8 | 682.5
353.15 K, 5000 kPa | 764 | 747.1 | 728.8 | 705.4 | 687.6
353.15 K, 10000 kPa | 768.7 | 752.4 | 734.8 | 712.3 | 695.5
353.15 K, 15000 kPa | 773.1 | 757.3 | 740.2 | 718.7 | 702.5
353.15 K, 20000 kPa | 777.3 | 761.9 | 745.3 | 724.5 | 708.9
353.15 K, 30000 kPa | 785 | 770.4 | 754.6 | 735 | 720.4
353.15 K, 40000 kPa | 792 | 778 | 762.9 | 744.3 | 730.4
353.15 K, 50000 kPa | 798.5 | 785 | 770.5 | 752.6 | 739.4
353.15 K, 60000 kPa | 804.6 | 791.6 | 777.6 | 760.6 | 747.7
353.15 K, 70000 kPa | 810.3 | 797.7 | 784.2 | 767.6 | 755.2
353.15 K, 80000 kPa | 815.7 | 803.3 | 790.1 | 774.1 | 762.1
353.15 K, 90000 kPa | 820.8 | 808.9 | 796.1 | 780.4 | 768.7
353.15 K, 100000 kPa | 825.7 | 814 | 801.5 | 786.2 | 774.8
353.15 K, 110000 kPa | 830.4 | 818.9 | 806.7 | 791.7 | 780.5
353.15 K, 120000 kPa | 834.9 | 823.6 | 811.6 | 796.9 | 786
353.15 K, 130000 kPa | 839.1 | 828 | 816.3 | 801.9 | 791.1
353.15 K, 140000 kPa | 843.2 | 832.4 | 820.8 | 806.6 | 796
373.15 K, 100 kPa | 741.8 | 723.3 | 702.7 | 676.5 | 656.3
373.15 K, 500 kPa | 742 | 723.5 | 703.1 | 677 | 657
373.15 K, 1000 kPa | 742.6 | 724.1 | 703.9 | 678 | 658.1
373.15 K, 2000 kPa | 743.8 | 725.5 | 705.4 | 679.9 | 660.3
373.15 K, 5000 kPa | 747.1 | 729.2 | 709.9 | 685.2 | 666.5
373.15 K, 10000 kPa | 752.4 | 735.3 | 716.7 | 693.4 | 675.7
373.15 K, 15000 kPa | 757.3 | 740.8 | 723 | 700.7 | 683.8
373.15 K, 20000 kPa | 761.9 | 745.9 | 728.8 | 707.3 | 691.2
373.15 K, 30000 kPa | 770.5 | 755.4 | 739.1 | 719.1 | 704.1
373.15 K, 40000 kPa | 778.2 | 763.8 | 748.4 | 729.4 | 715.3
373.15 K, 50000 kPa | 785.2 | 771.3 | 756.6 | 738.5 | 725
373.15 K, 60000 kPa | 791.8 | 778.4 | 764.2 | 746.9 | 733.9
373.15 K, 70000 kPa | 797.9 | 784.9 | 771.3 | 754.5 | 742
373.15 K, 80000 kPa | 803.8 | 791.2 | 778 | 761.8 | 749.5
373.15 K, 90000 kPa | 809.2 | 796.9 | 784 | 768.3 | 756.4
373.15 K, 100000 kPa | 814.3 | 802.4 | 789.8 | 774.4 | 762.8
373.15 K, 110000 kPa | 819.4 | 807.6 | 795.3 | 780.3 | 769
373.15 K, 120000 kPa | 824.2 | 812.6 | 800.6 | 785.9 | 774.7
373.15 K, 130000 kPa | 828.6 | 817.3 | 805.5 | 791.1 | 780.2
373.15 K, 140000 kPa | 833 | 821.8 | 810.2 | 796.1 | 785.3
393.15 K, 500 kPa | 724.7 | 705 | 683.5 | 655.7 | 634.2
393.15 K, 1000 kPa | 725.4 | 705.7 | 684.4 | 656.8 | 635.6
393.15 K, 2000 kPa | 726.7 | 707.3 | 686.3 | 659.1 | 638.4
393.15 K, 5000 kPa | 730.5 | 711.7 | 691.5 | 665.6 | 645.9
393.15 K, 10000 kPa | 736.6 | 718.7 | 699.5 | 675.3 | 657
393.15 K, 15000 kPa | 742.1 | 724.9 | 706.6 | 683.6 | 666.4
393.15 K, 20000 kPa | 747.3 | 730.7 | 713.2 | 691.2 | 674.9
393.15 K, 30000 kPa | 756.7 | 741.1 | 724.7 | 704.4 | 689.3
393.15 K, 40000 kPa | 765.3 | 750.4 | 735 | 715.8 | 701.7
393.15 K, 50000 kPa | 772.8 | 758.6 | 743.9 | 725.7 | 712.2
393.15 K, 60000 kPa | 779.9 | 766.4 | 752.2 | 734.8 | 721.9
393.15 K, 70000 kPa | 786.7 | 773.5 | 759.9 | 743.1 | 730.7
393.15 K, 80000 kPa | 792.8 | 779.9 | 766.8 | 750.5 | 738.5
393.15 K, 90000 kPa | 798.6 | 786.1 | 773.4 | 757.6 | 745.9
393.15 K, 100000 kPa | 804.1 | 791.8 | 779.5 | 764.1 | 752.7
393.15 K, 110000 kPa | 809.4 | 797.5 | 785.4 | 770.3 | 759.2
393.15 K, 120000 kPa | 814.4 | 802.7 | 790.8 | 776.1 | 765.1
393.15 K, 130000 kPa | 819.1 | 807.6 | 796 | 781.5 | 770.8
393.15 K, 140000 kPa | 823.7 | 812.4 | 801 | 786.8 | 776.3
